Data as given in US8273900B2, “Organic compounds” (Novartis AG, priority 2008, dated 2012).
pIC50: −log10 of the molar value.

Target: T1, human recombinant CRF-1 receptor (Homo sapiens, UniProt P34998)
T1 construct: expressed in transfected cells; host or cells: CHO cells (G418-selected)
T1 sequence (P34998 24-415): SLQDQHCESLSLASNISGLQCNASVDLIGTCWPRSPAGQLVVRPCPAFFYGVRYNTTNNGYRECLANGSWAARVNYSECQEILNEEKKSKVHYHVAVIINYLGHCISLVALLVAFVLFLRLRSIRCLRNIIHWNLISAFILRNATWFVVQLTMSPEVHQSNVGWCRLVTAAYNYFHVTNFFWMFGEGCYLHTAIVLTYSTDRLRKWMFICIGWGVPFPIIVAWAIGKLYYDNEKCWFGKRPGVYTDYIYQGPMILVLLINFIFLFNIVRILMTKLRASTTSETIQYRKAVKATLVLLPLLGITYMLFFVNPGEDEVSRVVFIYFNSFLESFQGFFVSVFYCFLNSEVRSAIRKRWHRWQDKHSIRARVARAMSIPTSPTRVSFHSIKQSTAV
Test: CRF-1 receptor antagonism, HTRF cAMP assay in CHO cells in the presence of 1 nM CRF
Assay type: cell-based
Conditions: CHO cells expressing human recombinant CRF-1; inhibition of the effect of 1 nM CRF on cAMP

How did the pIC50 turn out when `O=C(N[C@H]1CC[C@H](CNCc2cc(-c3ccccc3)on2)CC1)c1cc(C(F)(F)F)ccc1Cl` [Example 2.35, Trans-2-Chloro-N-(4-{[(5-phenyl-isoxazol-3-ylmethyl)-amino]-methyl}-cyclohexyl)-5-trifluoromethyl-benzamide] was run?
Its pIC50 is 6.46.
